Measurements taken from EP4711371A1 (priority 2023, dated 2024).
Read-outs that look alike come from different tables or passages of the source.

How the values were obtained:
Assay type in all cases: cell-based
[1] = test system: T47D; test: cells; conditions: Homo sapiens, 120 h, read-out: T47D IC50
Protocol: (§1) Test Example 2 In vitro proliferation inhibition assay of the camptothecin derivatives (Payload) of the present invention on tumor cells 1. Instruments and Reagents
(§2) 2. Experimental Procedure • a. Plating & culture: MDA-MB-453 (purchased from: Xiehe, catalog number: 1101HUM-PUMCO00016)/T47D (Kebai, CBP60397)/HT1376 cells (purchased from: Kebai, catalog number: CBP60310) were cultured into 96-well plates by a density of 1×10^3 /2×10^3 /1×10^3 cells per100 µL, and 200 µL of PBS was added to the outermost circle (to reduce the volatilization of the culture medium), and cultured at 37°C, 5% CO2 incubator for 24 h; • b. Drug Addition & Incubation: The 96-well flat-bottom plate was retrieved. The culture medium in the wells was aspirated, and 100 µL of the ADC drug/payload (diluted in culture medium) was added to each well. The plate was then incubated at 37°C, 5% CO2 incubator for 5 days. 3. Detection and data processing • a. The 96-well plate was retrieved. The culture medium was removed, and 100 µL of detection reagent (CCK8:medium= 1:9) was added to each well. The plate was then placed in a 37°C, 5% CO2 incubator for 4 hours; • b. The optical density (OD) at 450 nm was measured using a microplate reader (model: CEY0017), and the data was recorded with Excel. • c. Graphpad Prism 9.0 was used to analyze and organize the data.

[2] = test system: HT1376; test: In vitro proliferation inhibition assay of camptothecin derivatives (Payload), Test Example 2; conditions: Homo sapiens, HT-1376, 120 h, read-out: HT1376 IC50
Protocol: as §1, §2

[3] = test system: MDA-MB-453; test: as above; conditions: Homo sapiens, MDA-MB-453, 120 h, read-out: MDA-MB-453 IC50
Protocol: as §1, §2

[4] = test system: T47D; test: cells; conditions: Homo sapiens, 96 h, payload, cultured 4 days, CCK-8, read-out: T47D IC50
Description: (§3) The control compounds used in the experiment were DXD (synthesized from EXD according to the synthesis method of patent EP2907824B1. EXD was purchased from MedChemExpress, catalog number: HY-13631A) and SN38 (purchased from Bide Pharmatech, catalog number BD8481). Their structural formulas are [drawing 515] respectively.
(§4) The cell lines used in this experiment were human breast cancer cells SK-BR-3, T47D, MDA-MB-453, human malignant melanoma cells A375, human lung squamous carcinoma cells NCI-H1703, and human gastric cancer cells NCI-N87. Cell suspensions were prepared in fresh cell culture medium containing 10% FBS and then diluted to a density of 5 × 10^4 cells/mL, 10×10^4 cells/mL, 100 µL per well was added to a 96-well cell culture plate (Thermo catalog number: 167425), and cultured at 37°C with 5% carbon dioxide for 24 h.
(§5) The test compounds of the present invention and the control compounds were each prepared to 10 mM stock solutions in DMSO, and the drugs were diluted with 5% FBS 1640 culture medium in a gradient of 50, 10, 2, 0.4, 0.08, 0.016, 0.0032, 0.00064, 0.000128, and 0 µM, with two replicates for each well.
(§6) 50 µL of cell supernatant was pipetted from each 96-well plate, followed by the addition of 50 µL of compound dilutions at final […] of 25, 5, 1, 0.2, 0.04, 0.008, 0.0016, 0.00032, 0.000064, and 0 µM. After mixing, the cells were cultured in a constant temperature CO2 incubator for 4 days. Cell supernatant was then added with 100 µL of detection reagent (5% FBS1640 medium and CCK-8 solution in a 10:1 ratio) and incubated in an incubator for 4 hours. […] was read on a microplate reader (TECAN, Spark), and data were analyzed using Graphpad Prism 8 software.

[5] = test system: MDA-MB-453; test: In vitro proliferation inhibition assay of camptothecin derivatives (Payload), Test Example 1; conditions: Homo sapiens, MDA-MB-453, 96 h; payload, cultured 4 days, CCK-8; read-out: MDA-MB-453 IC50
Description: as §3, §4, §5, §6

[6] = payload, incubated 5 days, CCK8, OD 450 nm

| Structure (SMILES) | IC50 [1] [nM] | IC50 [2] [nM] | IC50 [3] [nM] | IC50 [1, 6] [nM] | IC50 [2, 6] [nM] | IC50 [3, 6] [nM] | IC50 [4] [nM] | IC50 [5] [nM] |
| --- | --- | --- | --- | --- | --- | --- | --- | --- |
| CC[C@@]1(O)C(=O)OCc2c1cc1n(c2=S)Cc2c-1nc1cc(F)c(OC)cc1c2CN [Compound 12] | 0.093 | 1.97 | 0.312 | – | – | – | – | – |
| CC[C@@]1(O)C(=O)OCc2c1cc1n(c2=S)Cc2c-1nc1cc3c(cc1c2CN)OCCO3 [Compound 13] | 0.059 | 10.9 | 0.797 | – | – | – | – | – |
| CC[C@@]1(O)C(=O)OCc2c1cc1n(c2=S)Cc2c-1nc1cc(Cl)c(C)cc1c2CN [Compound 14] | 0.25 | 13.8 | 5.23 | – | – | – | – | – |
| CC[C@@]1(O)C(=O)OCc2c1cc1n(c2=S)Cc2c-1nc1cc(F)c(F)cc1c2CN [Compound 15] | 0.157 | 9.76 | 1.1 | – | – | – | – | – |
| CC[C@@]1(O)C(=O)OCc2c1cc1n(c2=S)Cc2c-1nc1cc(F)c(C)cc1c2[C@@H](C)N [Compound 16] | 0.141 | 3.87 | 0.481 | – | – | – | – | – |
| CC[C@@]1(O)C(=O)OCc2c1cc1n(c2=S)Cc2c-1nc1cc(F)c(C)cc1c2CNC(=O)[C@@H](O)C1CC1 [Compound 19] | 0.268 | 9.36 | 1.01 | – | – | – | – | – |
| CC[C@@]1(O)C(=O)OCc2c1cc1n(c2=S)Cc2c-1nc1cc(F)c(C)cc1c2CNC(=O)[C@H](O)C1CC1 [Compound 20] | 0.245 | 0.917 | 8.06 | – | – | – | – | – |
| CC[C@@]1(O)C(=O)OCc2c1cc1n(c2=S)Cc2c-1nc1cc(F)c(C)cc1c2CNC(=O)[C@H]1C[C@@H](O)C1 [Compound 21] | 0.108 | 11.6 | 0.294 | – | – | – | – | – |
| CC[C@@]1(O)C(=O)OCc2c1cc1n(c2=S)Cc2c-1nc1cc(F)c(C)cc1c2CNC(=O)[C@H](C)O [Compound 22] | 0.116 | 5.38 | 0.362 | – | – | – | – | – |
| CC[C@@]1(O)C(=O)OCc2c1cc1n(c2=S)Cc2c-1nc1cc(F)c(C)cc1c2CNC(=O)[C@@H](C)O [Compound 23] | 0.117 | 5.94 | 0.343 | – | – | – | – | – |
| CC[C@@]1(OC(=O)Cn2cc(F)c(=O)[nH]c2=O)C(=O)OCc2c1cc1n(c2=S)Cc2c-1nc1cc(F)c(C)cc1c2CN [Compound 24] | – | – | – | 3.6 | 25.4 | 78.4 | – | – |
| CC[C@@]1(OC(=O)Cn2cc(F)c(=O)[nH]c2=O)C(=O)OCc2c1cc1n(c2=S)Cc2c-1nc1cc(F)c(C)cc1c2CNC(=O)CO [Compound 25] | – | – | – | 2.6 | 8.39 | 103 | – | – |
| CC[C@@]1(O)C(=O)OCc2c1cc1n(c2=S)Cc2c-1nc1cc(F)c(C)cc1c2CNC(=S)CO [Compound 26] | < 0.003 | 0.014 | 1 | – | – | – | – | – |
| CC[C@@]1(O)C(=O)OCc2c1cc1n(c2=S)Cc2c-1nc1cc(F)c(C)cc1c2CNCCO [Compound 27] | 0.152 | 2.5 | 0.17 | – | – | – | – | – |
| CC[C@@]1(O)C(=O)OCc2c1cc1n(c2=S)Cc2c-1nc1cc(F)c(C)cc1c2CNC(=O)C1CCC(O)C1 (some centres unmarked) [Compound 28] | 0.15 | 42.4 | 6.17 | – | – | – | – | – |
| [2H]C([2H])(O)C(=O)NCc1c2c(nc3cc(F)c(C)cc13)-c1cc3c(c(=S)n1C2)COC(=O)[C@]3(O)CC [Compound 29] | 0.014 | 5.98 | 0.183 | – | – | – | – | – |
| CC[C@@]1(O)C(=O)OCc2c1cc1n(c2=S)Cc2c-1nc1cc(F)c(OC)cc1c2CNC(=O)[C@H]1C[C@@H](O)C1 [Compound 30] | 0.391 | 66.7 | 1.01 | – | – | – | – | – |
| CC[C@@]1(O)C(=O)OCc2c1cc1n(c2=S)Cc2c-1nc1cc(F)c(OC)cc1c2CNC(=O)CO [Compound 31] | 0.142 | 19.5 | 0.337 | – | – | – | – | – |

| Structure (SMILES) | IC50 [1] [nM] | IC50 [2] [nM] | IC50 [3] [nM] | IC50 [1, 6] [nM] | IC50 [2, 6] [nM] | IC50 [3, 6] [nM] | IC50 [4] [nM] | IC50 [5] [nM] |
| --- | --- | --- | --- | --- | --- | --- | --- | --- |
| CC[C@@]1(O)C(=O)OCc2c1cc1n(c2=S)Cc2c-1nc1cc(F)c(OC)cc1c2CNC(=O)[C@H](C)O [Compound 32] | 0.089 | 15.3 | 0.417 | – | – | – | – | – |
| CC[C@@]1(O)C(=O)OCc2c1cc1n(c2=S)Cc2c-1nc1cc(F)c(OC)cc1c2CNC(=O)OCCO [Compound 33] | 0.392 | 45.4 | 0.599 | – | – | – | – | – |
| CC[C@@]1(O)C(=O)OCc2c1cc1n(c2=S)Cc2c-1nc1cc(F)c(OC)cc1c2CNC(=O)[C@@H](C)O [Compound 34] | 0.151 | 10.1 | 0.652 | – | – | – | – | – |
| CC[C@@]1(O)C(=O)OCc2c1cc1n(c2=S)Cc2c-1nc1cc(F)c(OC)cc1c2CNC(=S)CO [Compound 35] | – | 4.94 | ~1.22 | – | – | – | – | – |
| CC[C@@]1(O)C(=O)OCc2c1cc1n(c2=S)Cc2c-1nc1cc3c(cc1c2CNC(=O)CO)OCCO3 [Compound 36] | 0.119 | 10.3 | 0.029 | – | – | – | – | – |
| CC[C@@]1(O)C(=O)OCc2c1cc1n(c2=S)Cc2c-1nc1cc3c(cc1c2CNC(=O)OCCO)OCCO3 [Compound 37] | 0.054 | 13.5 | 0.013 | – | – | – | – | – |
| CC[C@@]1(O)C(=O)OCc2c1cc1n(c2=S)Cc2c-1nc1cc3c(cc1c2CNC(=O)[C@H]1C[C@@H](O)C1)OCCO3 [Compound 38] | 0.234 | 38.4 | 0.121 | – | – | – | – | – |
| CC[C@@]1(O)C(=O)OCc2c1cc1n(c2=S)Cc2c-1nc1cc3c(cc1c2CNC(=S)CO)OCCO3 [Compound 39] | 0.047 | 8.69 | 0.482 | – | – | – | – | – |
| CC[C@@]1(O)C(=O)OCc2c1cc1n(c2=S)Cc2c-1nc1cc3c(cc1c2CNC(=O)[C@H](C)O)OCCO3 [Compound 40] | 0.053 | 18.2 | 0.021 | – | – | – | – | – |
| CC[C@@]1(O)C(=O)OCc2c1cc1n(c2=S)Cc2c-1nc1cc3c(cc1c2CNC(=O)[C@@H](C)O)OCCO3 [Compound 41] | 0.231 | 24.1 | 0.943 | – | – | – | – | – |
| CC[C@@]1(O)C(=O)OCc2c1cc1n(c2=S)Cc2c-1nc1cc(Cl)c(C)cc1c2CNC(=O)[C@H]1C[C@@H](O)C1 [Example 42] | 0.845 | 40.2 | 4.18 | – | – | – | – | – |
| CC[C@@]1(O)C(=O)OCc2c1cc1n(c2=S)Cc2c-1nc1cc(Cl)c(C)cc1c2CNC(=O)[C@H](C)O [Example 43] | 0.089 | 9.94 | 1.64 | – | – | – | – | – |
| CC[C@@]1(O)C(=O)OCc2c1cc1n(c2=S)Cc2c-1nc1cc(F)c(F)cc1c2CNC(=O)[C@H]1C[C@@H](O)C1 [Example 44] | 0.195 | 5.05 | 0.674 | – | – | – | – | – |
| CC[C@@]1(O)C(=O)OCc2c1cc1n(c2=S)Cc2c-1nc1cc(F)c(F)cc1c2CNC(=O)[C@H](C)O [Example 45] | 2.79 | 3.79 | 4.97 | – | – | – | – | – |
| CCC1(O)CC(=O)OCc2c1cc1n(c2=O)Cc2c-1nc1cc(F)c(C)cc1c2CN (centres unmarked) [Example 47] | – | – | – | – | – | – | 0.956 | 4.37 |
| CCC1(O)CC(=O)OCc2c1cc1n(c2=O)Cc2c-1nc1cc(F)c(C)cc1c2CCCCO (centres unmarked) [Example 48] | – | – | – | – | – | – | 0.832 | 17.7 |
| CCC1(O)CC(=O)OCc2c1cc1n(c2=O)Cc2c-1nc1cc(F)c(F)cc1c2CN (centres unmarked) [Example 49] | – | – | – | – | – | – | 11 | 24.5 |
